Experiments:
Assay type in all cases: cell-based
E. coli DH5α = test: Antibacterial activity: MIC and growth curve against E. coli DH5α in 96-well plate; conditions: minimal inhibitory concentration against E. coli DH5α; 96-well plate, 5×10^5 CFU/mL, 37° C., judged after 8 h
How it was run: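 Log-phase DH5α (OD600 about 0.5, 37° C, 185 rpm in LB) was pelleted, resuspended in fresh LB and seeded at 5×10^5 CFU/mL with recombinant protein at 50, 25 and 12.5 μg/mL (two-fold series), in triplicate. Plates were shaken at 175 rpm, 37° C, and OD600 was read every 30 min. MIC was the lowest concentration with no growth.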

E. coli BL21 = test: MIC against Gram-negative bacteria: E. coli BL21; conditions: 5×10^5 CFU/mL; for MIC against E. coli BL21 / MIC (μg/mL) E. coli BL21: 96-well plate, 37° C., 10 h; for MIC E. coli BL21: 10 h cultivation at 37° C., two-fold serial dilution
How it was run: (§1)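 LB broth cultures at McFarland 0.5, spun down, resuspended, diluted to 5×10^5 CFU/mL final. Two-fold serial dilutions of purified human EGF domain proteins, triplicate. 37° C, 175 rpm shaking. Endpoint: no visible growth.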

Pseudomonas aeruginosa = test: MIC against Gram-negative bacteria: Pseudomonas aeruginosa; conditions: 5×10^5 CFU/mL; for MIC against P. aeruginosa / MIC (μg/mL) P. aeruginosa: 96-well plate, 37° C., 10 h; for MIC P. aeruginosa: 10 h cultivation at 37° C., two-fold serial dilution
How it was run: as §1

Klebsiella pneumonia = test: MIC against Gram-negative bacteria: Klebsiella pneumonia; conditions: 5×10^5 CFU/mL; for MIC against K. pneumonia / MIC (μg/mL) K. pneumonia: 96-well plate, 37° C., 10 h; for MIC K. pneumonia: 10 h cultivation at 37° C., two-fold serial dilution
How it was run: as §1

Enterobacter cloacae = test: MIC against Gram-negative bacteria: Enterobacter cloacae; conditions: 5×10^5 CFU/mL; for MIC against E. cloacae / MIC (μg/mL) E. cloacae: 96-well plate, 37° C., 10 h; for MIC E. cloacae: 10 h cultivation at 37° C., two-fold serial dilution
How it was run: as §1

Aeromonas hydrophila = test: MIC against Gram-negative bacteria: Aeromonas hydrophila; conditions: 5×10^5 CFU/mL; for MIC against A. hydrophila / MIC (μg/mL) A. hydrophila: 96-well plate, 37° C., 10 h; for MIC A. hydrophila: 10 h cultivation at 37° C., two-fold serial dilution
How it was run: as §1

Citrobacter diversus = test: MIC against Gram-negative bacteria: Citrobacter diversus; conditions: 5×10^5 CFU/mL; for MIC against C. diversus / MIC (μg/mL) C. diversus: 96-well plate, 37° C., 10 h; for MIC C. diversus: 10 h cultivation at 37° C., two-fold serial dilution
How it was run: as §1

Moraxella catarrhalis = test: MIC against Gram-negative bacteria: Moraxella catarrhalis; conditions: 5×10^5 CFU/mL; for MIC against M. catarrhalis / MIC (μg/mL) M. catarrhalis: 96-well plate, 37° C., 10 h; for MIC M. catarrhalis: 10 h cultivation at 37° C., two-fold serial dilution
How it was run: as §1

Proteus mirabilis = test: MIC against Gram-negative bacteria: Proteus mirabilis; conditions: 5×10^5 CFU/mL; for MIC against P. mirabilis / MIC (μg/mL) P. mirabilis: 96-well plate, 37° C., 10 h; for MIC P. mirabilis: 10 h cultivation at 37° C., two-fold serial dilution
How it was run: as §1

Proteus vulgaris = test: MIC against Gram-negative bacteria: Proteus vulgaris; conditions: 5×10^5 CFU/mL; for MIC against P. vulgaris / MIC (μg/mL) P. vulgaris: 96-well plate, 37° C., 10 h; for MIC P. vulgaris: 10 h cultivation at 37° C., two-fold serial dilution
How it was run: as §1

Serratia marcescens = test: MIC against Gram-negative bacteria: Serratia marcescens; conditions: 5×10^5 CFU/mL; for MIC against S. marcescens / MIC (μg/mL) S. marcescens: 96-well plate, 37° C., 10 h; for MIC S. marcescens: 10 h cultivation at 37° C., two-fold serial dilution
How it was run: as §1

For “PRT450 (KCLCPLGFLLANDSKTCEDIDE; listed as Homo sapiens)”, the MIC (E. coli DH5α) was 12.5 µg/mL, the “MIC against E. coli BL21” value (E. coli BL21) was 12.5 µg/mL and the “MIC against P. aeruginosa” value (Pseudomonas aeruginosa) was 12.5 µg/mL. The “MIC against K. pneumonia” value (Klebsiella pneumonia) was 50 µg/mL, the “MIC against E. cloacae” value (Enterobacter cloacae) was 12.5 µg/mL and the “MIC against A. hydrophila” value (Aeromonas hydrophila) was 50 µg/mL. The “MIC against C. diversus” value (Citrobacter diversus) was 12.5 µg/mL, the “MIC against M. catarrhalis” value (Moraxella catarrhalis) was 50 µg/mL and the “MIC against P. mirabilis” value (Proteus mirabilis) was 12.5 µg/mL. The “MIC against P. vulgaris” value (Proteus vulgaris) was 50 µg/mL and the “MIC against S. marcescens” value (Serratia marcescens) was 12.5 µg/mL.
In the case of “PRT86 (VTNACASGPCPPHADCRDLWQTFSCTCQPGYYGPGCV; listed as Homo sapiens)”, the MIC (E. coli DH5α) is reported as 50 µg/mL, the “MIC (μg/mL) E. coli BL21” value (E. coli BL21; E. coli BL21) is reported as 12.5 µg/mL and the “MIC (μg/mL) P. aeruginosa” value (Pseudomonas aeruginosa; Pseudomonas aeruginosa) is reported as 25 µg/mL. The “MIC (μg/mL) K. pneumonia” value (Klebsiella pneumonia; Klebsiella pneumonia) was 12.5 µg/mL, the “MIC (μg/mL) E. cloacae” value (Enterobacter cloacae; Enterobacter cloacae) was 25 µg/mL and the “MIC (μg/mL) A. hydrophila” value (Aeromonas hydrophila; Aeromonas hydrophila) was 12.5 µg/mL. The “MIC (μg/mL) C. diversus” value (Citrobacter diversus; Citrobacter diversus) was 25 µg/mL, the “MIC (μg/mL) M. catarrhalis” value (Moraxella catarrhalis; Moraxella catarrhalis) was 12.5 µg/mL and the “MIC (μg/mL) P. mirabilis” value (Proteus mirabilis; Proteus mirabilis) was 25 µg/mL. For the same substance, the “MIC (μg/mL) P. vulgaris” value (Proteus vulgaris; Proteus vulgaris) was 12.5 µg/mL and the “MIC (μg/mL) S. marcescens” value (Serratia marcescens; Serratia marcescens) was 12.5 µg/mL.
“PRT1166 (DTPEGVRYISSNVCGPHGKCKSQSGGKFTCDCNKGFTGTYCH; listed as Homo sapiens)” was tested, and the MIC (E. coli DH5α) was 50 µg/mL, the “MIC E. coli BL21” value (E. coli BL21) was 12.5 µg/mL and the “MIC P. aeruginosa” value (Pseudomonas aeruginosa) was 25 µg/mL. The “MIC K. pneumonia” value (Klebsiella pneumonia) was 50 µg/mL, the “MIC E. cloacae” value (Enterobacter cloacae) was 25 µg/mL and the “MIC A. hydrophila” value (Aeromonas hydrophila) was 25 µg/mL. For the same substance, the “MIC C. diversus” value (Citrobacter diversus) was 12.5 µg/mL, the “MIC M. catarrhalis” value (Moraxella catarrhalis) was 50 µg/mL and the “MIC P. mirabilis” value (Proteus mirabilis) was 12.5 µg/mL. For the same substance, the “MIC P. vulgaris” value (Proteus vulgaris) was 50 µg/mL and the “MIC S. marcescens” value (Serratia marcescens) was 12.5 µg/mL.
For “PRT1156 (IIGQCQPHVCFHGNCSNITSNSFICECDEQFSGPFCE; listed as Homo sapiens)”, the MIC (E. coli DH5α) was 50 µg/mL, the “MIC E. coli BL21” value (E. coli BL21) was 25 µg/mL and the “MIC P. aeruginosa” value (Pseudomonas aeruginosa) was 12.5 µg/mL. For the same substance, the “MIC K. pneumonia” value (Klebsiella pneumonia) was 25 µg/mL, the “MIC E. cloacae” value (Enterobacter cloacae) was 25 µg/mL and the “MIC A. hydrophila” value (Aeromonas hydrophila) was 50 µg/mL. For the same substance, the “MIC C. diversus” value (Citrobacter diversus) was 25 µg/mL, the “MIC M. catarrhalis” value (Moraxella catarrhalis) was 12.5 µg/mL and the “MIC P. mirabilis” value (Proteus mirabilis) was 50 µg/mL. For the same substance, the “MIC P. vulgaris” value (Proteus vulgaris) was 12.5 µg/mL and the “MIC S. marcescens” value (Serratia marcescens) was 50 µg/mL.
With “PRT1318 (DCTQCPGGFSNPCYGKGNCSDGIQGNGACLCFPDYKGIACH; listed as Homo sapiens)” the MIC (E. coli DH5α) was 25 µg/mL, the “MIC against E. coli BL21” value (E. coli BL21; E. coli BL21) was 12.5 µg/mL and the “MIC against P. aeruginosa” value (Pseudomonas aeruginosa; Pseudomonas aeruginosa) was 25 µg/mL. The “MIC against K. pneumonia” value (Klebsiella pneumonia; Klebsiella pneumonia) was 50 µg/mL, the “MIC against E. cloacae” value (Enterobacter cloacae; Enterobacter cloacae) was 25 µg/mL and the “MIC against A. hydrophila” value (Aeromonas hydrophila; Aeromonas hydrophila) was 12.5 µg/mL. The “MIC against C. diversus” value (Citrobacter diversus; Citrobacter diversus) was 50 µg/mL, the “MIC against M. catarrhalis” value (Moraxella catarrhalis; Moraxella catarrhalis) was 12.5 µg/mL and the “MIC against P. mirabilis” value (Proteus mirabilis; Proteus mirabilis) was 25 µg/mL. The “MIC against P. vulgaris” value (Proteus vulgaris; Proteus vulgaris) was 50 µg/mL and the “MIC against S. marcescens” value (Serratia marcescens; Serratia marcescens) was 25 µg/mL.
In the case of “PRT22 (WCEDNGGCEQICTSRVDGPLCSCVTGTLQEDGKSCR; listed as Homo sapiens)”, the MIC (E. coli DH5α) is reported as 50 µg/mL, the “MIC (μg/mL) E. coli BL21” value (E. coli BL21; E. coli BL21) is reported as 50 µg/mL and the “MIC (μg/mL) P. aeruginosa” value (Pseudomonas aeruginosa; Pseudomonas aeruginosa) is reported as 25 µg/mL. For the same substance, the “MIC (μg/mL) K. pneumonia” value (Klebsiella pneumonia; Klebsiella pneumonia) was 12.5 µg/mL, the “MIC (μg/mL) E. cloacae” value (Enterobacter cloacae; Enterobacter cloacae) was 12.5 µg/mL and the “MIC (μg/mL) A. hydrophila” value (Aeromonas hydrophila; Aeromonas hydrophila) was 25 µg/mL. The “MIC (μg/mL) C. diversus” value (Citrobacter diversus; Citrobacter diversus) was 12.5 µg/mL, the “MIC (μg/mL) M. catarrhalis” value (Moraxella catarrhalis; Moraxella catarrhalis) was 25 µg/mL and the “MIC (μg/mL) P. mirabilis” value (Proteus mirabilis; Proteus mirabilis) was 12.5 µg/mL. For the same substance, the “MIC (μg/mL) P. vulgaris” value (Proteus vulgaris; Proteus vulgaris) was 12.5 µg/mL and the “MIC (μg/mL) S. marcescens” value (Serratia marcescens; Serratia marcescens) was 25 µg/mL.
In the case of “PRT519 (CQCNDNLDFSIPGSCDSLSGSCLICKPGTTGRYCELCADGYFGDAVDAKNCQP; listed as Homo sapiens)”, the MIC (E. coli DH5α) is reported as 25 µg/mL, the “MIC against E. coli BL21” value (E. coli BL21) is reported as 12.5 µg/mL and the “MIC against P. aeruginosa” value (Pseudomonas aeruginosa) is reported as 12.5 µg/mL. The “MIC against K. pneumonia” value (Klebsiella pneumonia) was 25 µg/mL, the “MIC against E. cloacae” value (Enterobacter cloacae) was 12.5 µg/mL and the “MIC against A. hydrophila” value (Aeromonas hydrophila) was 25 µg/mL. The “MIC against C. diversus” value (Citrobacter diversus) was 12.5 µg/mL, the “MIC against M. catarrhalis” value (Moraxella catarrhalis) was 25 µg/mL and the “MIC against P. mirabilis” value (Proteus mirabilis) was 12.5 µg/mL. For the same substance, the “MIC against P. vulgaris” value (Proteus vulgaris) was 25 µg/mL and the “MIC against S. marcescens” value (Serratia marcescens) was 12.5 µg/mL.

Reference: patent US9833497B2, “Human originated EGF domain proteins and use of the same” (CHENGDU SOURCEBIO LIMITED-LIABILITY COMPANY, priority 2013, dated 2017)
